Measured values: PubChem BioAssay (NCI)
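Tested at 5 concentrations; 48 h exposure; 96-well plates; endpoints linearly interpolated, else capped at highest concentration. TGI: concentration producing complete growth inhibition.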

Experiments:
Assay in all cases: inhibition of tumour cell growth, NCI panel, 48 h
[1] = system: HCC-2998 colon
[2] = system: HCT-15 colon
[3] = system: OVCAR-8 ovarian
[4] = system: UACC-257 melanoma
[5] = system: HOP-62 NSCLC
[6] = system: 786-0 renal
[7] = system: OVCAR-4 ovarian
[8] = system: CCRF-CEM leukemia
[9] = system: M14 melanoma
[10] = system: U251 CNS
[11] = system: SR leukemia
[12] = system: A498 renal
[13] = system: T-47D breast
[14] = system: PC-3 prostate
[15] = system: NCI/ADR-RES ovarian

Structure (SMILES)	TGI [1]	TGI [2]	TGI [3]	TGI [4]	TGI [5]	TGI [6]	TGI [7]	TGI [8]	TGI [9]	TGI [10]	TGI [11]	TGI [12]	TGI [13]	TGI [14]	TGI [15]
O=C(Cc1nc2ccc(C(=O)c3ccccc3)cc2[nH]c1=O)C(=O)Nc1ccc(C(F)(F)F)cc1[N+](=O)[O-]	> 100 µM	> 100 µM	> 100 µM	> 100 µM	> 100 µM	> 100 µM	> 100 µM	91.8 µM	> 100 µM	> 100 µM	> 100 µM	> 100 µM			
Oc1ccc(NCc2cc(O)ccc2O)cc1	30.8 µM	36.8 µM	> 100 µM	32 µM	35.7 µM	31.9 µM	30.7 µM		33.9 µM	29.5 µM		60.1 µM	52.1 µM	28.4 µM	51.3 µM
CC(=O)C(CN(C)Cc1ccccc1)C(c1ccccc1)c1c(O)c2ccccc2oc1=O (configuration not stated)	> 100 µM	> 100 µM	> 100 µM	> 100 µM	> 100 µM	> 100 µM	> 100 µM	> 100 µM	> 100 µM	> 100 µM	> 100 µM	> 100 µM			
O=C1NC(=O)/C(=C/c2ccc(S(=O)(=O)N/N=C/c3ccccc3)cc2)N1	> 100 µM	> 100 µM	> 100 µM	> 100 µM	> 100 µM	> 100 µM	> 100 µM	> 100 µM	> 100 µM	> 100 µM		> 100 µM	> 100 µM	> 100 µM	> 100 µM
OC1=CN=C(C2CC2)Oc2ccccc21	> 100 µM	> 100 µM	> 100 µM	> 100 µM	> 100 µM	> 100 µM	> 100 µM	> 100 µM	> 100 µM	> 100 µM		> 100 µM			
Cc1ccc(S(=O)(=O)C(C#N)c2nc3ccccc3nc2N2CCOCC2)cc1 (configuration not stated)	28.5 µM	> 100 µM		> 100 µM	44.6 µM	> 100 µM	37.4 µM	62.2 µM	> 100 µM	35.8 µM	> 100 µM	> 100 µM			
COC(=N)c1ncn(Cc2ccccc2)c1N	> 100 µM	> 100 µM	> 100 µM	> 100 µM	> 100 µM	> 100 µM	> 100 µM	> 100 µM	> 100 µM	> 100 µM		> 100 µM	> 100 µM	> 100 µM	> 100 µM
CSC1=N/C(=C\c2ccccc2)C(=O)N1CN1CCOCC1		> 100 µM	> 100 µM		> 100 µM	> 100 µM	90.8 µM	> 100 µM	> 100 µM	> 100 µM	> 100 µM	> 100 µM		> 100 µM	> 100 µM
CCOC(=O)c1ncn2c1[nH]c(=O)c1ccccc12		> 100 µM	> 100 µM			> 100 µM	> 100 µM	> 100 µM	> 100 µM	> 100 µM	> 100 µM				
